Data on one molecule can be found in patent publication US6747061B2, “N-substituted dithiocarbamates for the treatment of biological disorders” (AtheroGenics, Inc., priority 2000, dated 2004).

The structures appear in SMILES notation.

This test has as its system VCAM-1. Nature of the test: VCAM-1 assay: enzyme immunoassay of TNF-α induced VCAM-1 expression in endothelial cells. Format: cell-based, Human. As to conditions: Homo sapiens, Endothelial cell; HAEC, TNF-α 1 ng/ml, approximately 16 hours; read-out: VCAM-1 IC50. As for the experimental part: The VCAM-1 assay is an enzyme immunoassay to detect tumor necrosis factor alpha (TNF-α) induced Vascular Adhesion Molecule (VCAM-1) expression in endothelial cells.
Human endothelial cells (HAEC) were purchased from Clonetics and maintained in EGM media (Clonetics) supplemented with 5% fetal bovine serum (FBS). In a typical experiment, cells were seeded in 96-well plates. The next day cells were stimulated with TNF-α (1 ng/ml) purchased from Boehringer Mannheim in the presence or absence of compounds dissolved in dimethylsulphoxide (DMSO). To establish a dose curve for each compound, four concentrations in 2 fold increments were used. Cells were exposed to TNF-α and compounds for approximately 16 hours. The next day, cells were examined under microscope to score for visual signs of toxicity.
Media was discarded and the cells were washed once with Hanks buffered saline solution (HBSS)/phosphate buffered solution (PBS) 91:1). Primary mouse monoclonal antibody against VCAM-1 purchased from Southern Biotechnology Associates (0.25 μg/ml in HBSS/PBS+5% FBS) was added and incubated at 37° C. for 30 minutes. Cells were washed with HBSS/PBS three times, and secondary antibody horse radish peroxidase (HRP)-conjugated goat anti-mouse IgG purchased from Southern Biotechnology Associates (1:500 in HBSS/PBS+5% FBS) was added and incubated at 37° C. for 30 minutes. Cells were washed with HBSS/PBS four times and peroxidase substrate 3.3′,5,5′-tetramethyl-benzidine (TMB) was added and incubated in the dark at room temperature until there was adequate blue color development. The length of incubation time was typically 5-15 minutes. 2 N sulfuric acid was added to stop the color development and the data was collected by reading the absorbance at O.D. 450 nm. The result was expressed as the percentage of control sample (cells stimulated by TNF without any compound).

The term IC50 denotes the concentration that inhibits the measured activity by half. Turning to `COC(=O)CCCSC(=S)NCC1CCCO1` (stereo not shown) [NDE, 4-(tetrahydrofuran-2-ylmethylthiocarbamoylsulfanyl)-butyric acid methyl ester], the IC50 amounted to 1500 nM.
